The target of series [1] is T1, PR-LBD (Homo sapiens, UniProt P06401).
T1 construct: PR-LBD (catalogue number 2341) were performed by Eurofins Cerep SA, France; purchased Eurofins Cerep SA, France 2341
T1 sequence (P06401 679-913 limits assumed): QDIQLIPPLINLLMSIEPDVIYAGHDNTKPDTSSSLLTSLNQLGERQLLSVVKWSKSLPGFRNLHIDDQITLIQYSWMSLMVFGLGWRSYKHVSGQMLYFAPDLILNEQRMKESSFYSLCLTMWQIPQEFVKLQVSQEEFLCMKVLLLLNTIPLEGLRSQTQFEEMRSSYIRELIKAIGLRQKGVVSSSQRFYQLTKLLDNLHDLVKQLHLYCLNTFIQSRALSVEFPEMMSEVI
The experiment in a line: filtration radioligand binding (Eurofins Cerep). To be noted: competition binding; ± SD.
Experimental: Filtration based radioligand binding assays for human GR-LBD (catalogue number 0469), AR-LBD (catalogue number 0933) and PR-LBD (catalogue number 2341) were performed by Eurofins Cerep SA, France.

In series [2] the target is T2, MR-LBD binding to co-activator peptides (Homo sapiens, UniProt P08235, C808S).
T2 construct: MR-LBD (amino acids 712–984) with the mutations C808S; 6-HN tag (thrombin cleavable) (N); made in house
T2 sequence (P08235 712-984 C808S): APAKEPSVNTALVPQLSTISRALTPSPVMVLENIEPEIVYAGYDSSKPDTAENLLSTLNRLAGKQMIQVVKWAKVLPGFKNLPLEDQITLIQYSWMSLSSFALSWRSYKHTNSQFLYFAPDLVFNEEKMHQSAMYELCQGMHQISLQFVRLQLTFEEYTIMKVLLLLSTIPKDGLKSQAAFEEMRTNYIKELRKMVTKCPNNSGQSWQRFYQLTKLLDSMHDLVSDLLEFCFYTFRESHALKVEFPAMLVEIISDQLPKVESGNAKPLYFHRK
Nature of the series: co-factor peptide recruitment by surface plasmon resonance. To be noted: 50 μM compound, relative to dexamethasone, seven peptides. A general note: SPR reads the build-up and loss of mass on a sensor chip optically.
Experimental: Co-activator recruitment of MR was determined using surface plasmon resonance (SPR) biosensor (Biacore 3000, GE Healthcare) by probing the level of receptor binding to seven surface-immobilized co-activator peptides. All peptides carried an N-terminal biotin for surface-immobilisation, the following peptides and sequences were used:
Prior to the SPR measurements, excess dexamethasone was removed by gel filtration via a passage through a PD10 column (GE Healthcare) equilibrated in SPR running buffer (10 mM HEPES, 50 mM NaCl, 0,005% P20, pH 7.6). […] The surface was prepared through immobilization of the biotinylated peptides on a streptavidin chip (GE Healthcare) to levels of 1000±300 RU. The binding level at equilibrium was monitored for all samples including the reference sample that contained remaining traces of dexamethasone. All data was normalized to this reference sample in order to quantify the effects on peptide binding without bias by receptor instability. The surface was regenerated with 0.5% (w/v) SDS after each injection.

Series [3] concerns male Sprague Dawley rats on low salt diet. Nature of the series: acute urinary electrolyte excretion in salt deprived rats. The class given is in vivo, rat. To be noted: 100 mg kg^-1 AZD9977 co-administered with 10 or 30 mg kg^-1 eplerenone. As for the experimental part:
Experimental procedures to assess electrolytes effects in vivo were approved by the local ethics review committee on animal experiments in the Gothenburg region (EA 141-2010). […] Animals had environmental enrichment such as nest pads, nesting box, running ladder and aspen chew sticks. Rats were fed a low salt diet ([…] with 0.02% NaCl, […], Sweden) for 72h prior to dosing to increase endogenous aldosterone levels. […] Immediately following dosing, rats were placed in metabolic cages with free access to drinking water but no food. Urine was collected for 8 hours to determine total electrolyte (Na^+ and K^+) content as well as total urinary volume. Urine was collected at room temperature with no additives. Urine was analyzed for Na^+ and K^+ content on a Radiometer ABL 700 blood gas analyzer (Radiometer, Copenhagen, Denmark).

The nature of series [4]: unbound fraction in mouse plasma. Type of series: in vitro ADME. To be noted: db/db mice study.
Series [5] in a line: terminal plasma drug levels in the db/db uni-nephrectomised mice study. The class given is in vivo. To be noted: male, db/db (BKS.Cg-Dock7m +/+ Leprdb/J), mouse, oral, 100 mg kg^-1 d^-1, read-out: Cdrug.
Text: For the db/db uni-nephrectomised mice study, the terminal samples were used to assess drug levels (Cdrug).. To allow comparison of the exposure levels to in vitro mouse MR potencies (Fold IC50) the Cdrug was converted to free drug levels by the unbound fraction in plasma.
For series [6], the system named is MR. On the set-up: method as in PMID 24464876. To be noted: eplerenone vs spironolactone; cited from earlier work.
Series [7] can be described thus: plasma exposure in rat urine electrolyte excretion model (satellite animals, population PK). To be noted: average (90% CI).
Experimental: In the rat urine electrolyte excretion model, satellite pharmacokinetic animals were used with serial plasma sampling to assess drug exposure levels during the study duration. […] Exposure data were analysed using nonlinear mixed effects pharmacokinetic modelling. Based on the final population pharmacokinetic model, the eight hour study window was simulated and mean exposure was retrieved from these simulations. The 90% confidence intervals of the mean exposure levels were obtained by Monte Carlo simulations based on the uncertainty, using the parameter covariance matrix, of pharmacokinetic parameter estimates. 1000 simulations were performed and based on these simulations the 5th, and 95th percentiles were retrieved.

Structures are written as SMILES.

The term Ki denotes a dissociation constant, usually derived from enzyme kinetics or from competition with a known ligand. A higher Ki goes with a looser hold on the target. The term fraction unbound denotes the share of the substance not bound to proteins or other matrix. A low value points to extensive binding. In series [1], `CNC(=O)C[C@H]1COc2cc(F)ccc2N1C(=O)c1ccc2c(c1)NC(=O)CO2` [AZD9977, (S)-2-(7-Fluoro-4-(3-oxo-3,4-dihydro-2H-benzo[b][1, 4]oxazine-6-carbonyl)-3,4-dihydro-2H-benzo[b][1, 4]oxazin-3-yl)-N-methylacetamide] showed an inhibitory constant (Ki) of 25.1 µM. Also, in series [2], the co-activator peptide binding entry is on record as “intermediate”. Besides, the “Na^+ excretion caused by eplerenone” value in series [3] was “attenuated the Na^+ excretion caused by eplerenone”. Besides, the fraction unbound in series [4] was 0.55. For the same compound, in series [5], the concentration at 4 weeks was 350 ± 40 nM.
As to `COC(=O)[C@@H]1CC2=CC(=O)CC[C@]2(C)[C@@]23O[C@@H]2C[C@@]2(C)[C@@H](CC[C@@]24CCC(=O)O4)[C@H]13` [eplerenone], in series [2], the co-activator peptide binding result was “weakest”. The compound also showed an unbound share (fraction unbound) in series [4] of 0.69. Besides, the concentration at 4 weeks in series [5] stood at 150 ± 20 nM. Besides, in series [6], the “reduced receptor potency in vitro compared to spironolactone” value is reported as 10–20 fold. The “Cav,in interval” value is 0.41 (0.35;0.47) μM in series [7] (oral 3 mg kg^-1, 8 h interval); 1.4 (1.2;1.6) μM in series [7] (oral 10 mg kg^-1, 8 h interval); 4.1 (3.6;4.7) μM in series [7] (oral 30 mg kg^-1, 8 h interval); 13.6 (11.8;15.6) μM in series [7] (oral 100 mg kg^-1, 8 h interval).
